Data: patent US20080214563A1, “Benzimidazole Thiophene Compounds As Plk Modulators” (priority 2005, published 2008)

Tests used:
PLK1 kinase domain = target: T1, PLK1 kinase domain (Homo sapiens, UniProt P53350); experiment: Assay for Inhibition of PLK1 (33P SPA kinase assay); type: biochemical; conditions: 2 nM PLK1 kinase domain, 1 μM ATP; read-out: PLK1 pIC50 (converted)
T1 construct: made in house; host or cells: baculovirus infected T. ni cells
Description: All procedures were performed at 4° C. Cells were lysed in 50 mM HEPES, 200 mM NaCl, 50 mM imidazole, 5% glycerol; pH 7.5. The homogenate was centrifuged at 14K rpm in a SLA-1500 rotor for 1 h and the supernatant filtered through a 1.2 micron filter. The supernatant was loaded onto a Nickel chelating Sepharose (Amersham Pharmacia) column and washed with lysis buffer. Protein was eluted using 20%, 30% and 100% buffer B steps where buffer B is 50 mM HEPES, 200 mM NaCl, 300 mM imidazole, 5% glycerol; pH 7.5. Fractions containing PLK were determined by SDS-PAGE. Fractions containing PLK were diluted five-fold with 50 mM HEPES, 1 mM DTT, 5% glycerol; pH 7.5, then loaded on an SP Sepharose (Amersham Pharmacia) column. After washing the column with 50 mM HEPES, 1 mM DTT, 5% glycerol; pH 7.5, PLK was step eluted with 50 mM HEPES, 1 mM DTT, 500 mM NaCl; 5% glycerol; pH 7.5. PLK was concentrated using a 10 kDa molecular weight cutoff membrane and then loaded onto a Superdex 200 gel filtration (Amersham Pharmacia) column equilibrated in 25 mM HEPES, 1 mM DTT, 500 mM NaCl, 5% glycerol; pH 7.5. Fractions containing PLK were determined by SDS-PAGE. PLK was pooled, aliquoted and stored at −80° C. Samples were quality controlled using mass spectrometry, N-terminal sequencing and amino acid analysis.
B. Enzyme activity +/− inhibitors was determined as follows:
All measurements were obtained under conditions where signal production increased linearly with time and enzyme. Test compounds were added to white 384-well assay plates (0.1 μL for 10 μL and some 20 μl assays, 1 μL for some 20 μL assays) at variable known concentrations in 100% DMSO. DMSO (1-5% final, as appropriate) and EDTA (65 mM in reaction) were used as controls.
Reaction Mix (10 or 20 μL) was quickly added to each well immediately following addition of enzyme via automated liquid handlers and incubated 1-1.5 h at 22° C. The 20 μL enzymatic reactions were stopped with 50 μL of stop mix (50 mM EDTA, 4.0 mg/mL Streptavidin SPA beads in Standard Dulbecco's PBS (without Mg^2+ and Ca^2+), 50 μM ATP) per well. The 10 μL reactions were stopped with 10 μL of stop mix (50 mM EDTA, 3.0 mg/mL Streptavidin-coupled SPA Imaging Beads (“LeadSeeker”) in Standard Dulbecco's PBS (without Mg^2+ and Ca^2+), 50 μM ATP) per well. Plates were sealed with clear plastic seals, spun at 500×g for 1 min or settled overnight, and counted in Packard TopCount for 30 seconds/well (regular SPA) or imaged using a Viewlux imager (LeadSeeker SPA). Signal above background (EDTA controls) was converted to percent inhibition relative to that obtained in control (DMSO-only) wells.

H460 = experiment: Methylene Blue Cell Growth Inhibition Assay, H460; type: cell-based; conditions: Homo sapiens, NCI-H460, 72 h, read-out: MEB H460 IC50
Description: (§1) Normal human foreskin fibroblasts (HFF), human colon (HCT116, RKO), lung (H460, A549) and breast (MCF7) tumor cell lines were cultured in high glucose DMEM (Life Technologies) containing 10% fetal bovine serum (FBS) at 37° C. in a humidified 5% CO2, 95% air incubator. Cells were harvested using trypsin/EDTA, counted using a haemocytometer, and plated in 100 μL of culture media per well, at the following densities, in a 96-well tissue culture plate (Falcon 3075): HFF 5,000 cells/well, HCT116 3,000 cells/well, RKO 2,500 cells/well, H460 2,500 cells/well, A549 5,000 cells/well, MCF7 4,000 cells/well. The next day, compounds were diluted in low glucose DMEM containing 100 μg/mL gentamicin, at twice the final required concentration, from 10 mM stock solutions in DMSO. 100 μL/well of these dilutions were added to the 100 μL of media currently in the assay plates. Medium containing 0.6% DMSO was added to control wells. The final concentration of DMSO in all wells was 0.3%. Cells were incubated at 37° C., 5% CO2 for 72 h. Medium was removed by aspiration. Cell biomass was estimated by staining cells with 80 μL per well methylene blue (Sigma M9140, 0.5% in 50:50 ethanol:water), and incubation at room temperature for 30-60 min. Stain was removed by aspiration and the plates rinsed by immersion in water, then air-dried. To release stain from the cells, 100 μL of solubilization solution was added (1% N-lauroyl sarcosine, Sodium salt, Sigma L5125, in PBS), and plates were shaken gently for about 30 min. Optical density at 620 nm was measured on a microplate reader. Percent inhibition of cell growth was calculated relative to vehicle treated control wells. Concentration of compound that inhibits 50% of cell growth (IC50) was interpolated using nonlinear regression (Levenberg-Marquardt) and the equation, y=Vmax*(1−(x/(K+x)))+Y2, where “K” was equal to the IC50.

[1] = tested on: Normal human foreskin fibroblasts (HFF); experiment: Methylene Blue Cell Growth Inhibition Assay, HFF; type: cell-based; conditions: Fibroblast, 72 h, read-out: MEB HFF IC50
Description: as §1

A549 = experiment: Methylene Blue Cell Growth Inhibition Assay, A549; type: cell-based; conditions: Homo sapiens, 72 h, read-out: MEB A549 IC50
Description: as §1

T1 sequence (P53350 21-346): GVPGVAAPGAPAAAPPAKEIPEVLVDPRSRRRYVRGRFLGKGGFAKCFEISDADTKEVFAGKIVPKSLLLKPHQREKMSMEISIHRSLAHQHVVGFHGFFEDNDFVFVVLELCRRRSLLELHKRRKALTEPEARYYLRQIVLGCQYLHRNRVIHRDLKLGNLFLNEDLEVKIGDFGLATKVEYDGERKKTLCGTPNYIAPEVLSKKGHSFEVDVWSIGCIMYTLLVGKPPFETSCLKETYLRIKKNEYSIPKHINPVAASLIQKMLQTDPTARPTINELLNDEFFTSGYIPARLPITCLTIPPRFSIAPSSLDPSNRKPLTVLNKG

Row | SMILES | IC50 (PLK1 kinase domain) [nM] | IC50 (H460) [nM] | IC50 [1] [nM] | IC50 (A549) [nM]
1 | C[C@@H](Oc1cc(-n2cnc3cc(-c4ccc(N5CCNCC5)nc4)ccc32)sc1C(N)=O)c1ccccc1C(F)(F)F [Example 1, 5-{5-[6-(1-piperazinyl)-3-pyridinyl]-1H-benzimidazol-1-yl}-3-({(1R)-1-[2-(trifluoromethyl)phenyl]ethyl}oxy)-2-thiophenecarboxamide] | < 10 | 100 to 1000 | > 1000 | 100 to 1000
2 | C[C@@H](Oc1cc(-n2cnc3cc(-c4ccc(N5CCNCC5)nc4)ccc32)sc1C(N)=O)c1ccccc1Cl [Example 7, 3-{[(1R)-1-(2-Chlorophenyl)ethyl]oxy}-5-{5-[6-(1-piperazinyl)-3-pyridinyl]-1H-benzimidazol-1-yl}-2-thiophenecarboxamide] | < 10 |  |  | 
3 | C[C@@H](Oc1cc(-n2cnc3cc(-c4cnn(C)c4)ccc32)sc1C(N)=O)c1ccccc1Cl [Example 9, 3-{[(1R)-1-(2-Chlorophenyl)ethyl]oxy}-5-[5-(1-methyl-1H-pyrazol-4-yl)-1H-benzimidazol-1-yl]-2-thiophenecarboxamide] |  | < 100 | 100 to 1000 | < 100
